Experimental data reported in patent US20130252983A1, “ACTIVATING PHOSPHORYLATION SITE ON GLUTAMINASE C” (CORNELL UNIVERSITY, priority 2010, published 2013).

How the values were obtained:
[1] = tested on: GA activity of SKBR3 cells; experiment: GA activity in mitochondrial fractions of treated SKBR3 cells; format: cell-based, human; details: 10 μM, 48 hours
Procedure: (§1) 100%=620 moles of glutamine hydrolyzed per minute per mole of enzyme. Data represent the average of 3 experiments (±s.d.). […] Following precipitation of the beads and re-suspension, the samples were analyzed by Western blotting with anti-V5 antibody. […] Data represent the average of 3 experiments (±s.d.). […] Data represent the average of 3 experiments (±s.d.). […] Data represent the average of 3 experiments (±s.d.). FIG. 3E NIH 3T3 cells transiently expressing Dbl were assayed for focus formation in the presence of 10 μM 968 alone or together with 7 mM dimethyl α-ketoglutarate. […] 100%=680 nM glutamine hydrolyzed per minute per 10^5 cells. Data are the average of 3 experiments (±s.d.). […] 100%=750 nM glutamine hydrolyzed per minute per 10^5 cells. Data represent the average of 3 experiments (±s.d.).
(§2) FIGS. 4A-E illustrate the role of glutaminase C activity in cellular transformation. […] Data represent the average of 3 experiments (±s.d.). […] Data represent the average of 3 experiments (±s.d.). […] 100% represents the activity measured in untreated Dbl-transformed cells. The data represent the average of 2 experiments. […] 100% represents the activity measured in untreated SKBR3 cells. The data represent the average of 2 experiments. […] Data represent the average of 3 experiments (±s.d.).
FIGS. 11A-E illustrate the effects of different treatments on GA activity. […] The addition of Pi stimulated the GA activity in control 3T3 cells, Dbl-expressing cells, and Cdc42(F28L)-expressing cells by ˜6-fold, 2-fold, and 3-fold, respectively. 100% represents the Pi-stimulated activity measured for Dbl-transformed cells that were not treated with 968. Data is the average of 3 experiments (±s.d.). […] The addition of Pi stimulated the GA activity of HMECs, MDA-MB231 cells, and SKBR3 cells by ˜5-fold, 2-fold, and 1.4-fold, respectively. […] The data are plotted as the percentage of GA activity measured for untreated SKBR3 cells and represent the average of 2 experiments. […] 100% represents the Pi-stimulated activity measured for untreated Dbl-transformed cells. […]

[2] = molecular target: T1, GA activity of NIH 3T3 cells stably expressing Dbl or Cdc42(F28L) (Mus musculus, UniProt D3Z7P3); experiment: GA activity in mitochondrial fractions of treated transformed NIH 3T3 cells; format: cell-based; details: 10 μM, 48 hours
T1 construct: endogenous in cells; host or cells: NIH 3T3 cells stably expressing Dbl or Cdc42(F28L); mitochondrial fraction
T1 sequence (D3Z7P3 55-603 isoform D3Z7P3-2): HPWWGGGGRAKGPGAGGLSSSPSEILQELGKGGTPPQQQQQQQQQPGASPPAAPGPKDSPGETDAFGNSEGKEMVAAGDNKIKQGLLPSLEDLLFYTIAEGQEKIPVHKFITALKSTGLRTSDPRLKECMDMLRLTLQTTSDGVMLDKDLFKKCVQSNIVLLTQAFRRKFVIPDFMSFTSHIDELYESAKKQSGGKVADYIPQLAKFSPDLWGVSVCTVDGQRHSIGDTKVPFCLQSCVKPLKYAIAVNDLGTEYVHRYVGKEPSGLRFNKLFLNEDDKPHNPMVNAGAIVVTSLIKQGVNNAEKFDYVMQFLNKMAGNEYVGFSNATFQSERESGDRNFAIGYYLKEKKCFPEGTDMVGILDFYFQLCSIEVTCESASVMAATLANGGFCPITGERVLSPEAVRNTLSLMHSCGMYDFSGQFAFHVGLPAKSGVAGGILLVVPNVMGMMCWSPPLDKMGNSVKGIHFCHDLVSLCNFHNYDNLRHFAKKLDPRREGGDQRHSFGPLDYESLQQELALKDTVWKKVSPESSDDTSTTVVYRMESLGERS
Procedure: as §1, §2
FIGS. 11A-E illustrate the effects of different treatments on GA activity. […] The addition of Pi stimulated the GA activity in control 3T3 cells, Dbl-expressing cells, and Cdc42(F28L)-expressing cells by ˜6-fold, 2-fold, and 3-fold, respectively. 100% represents the Pi-stimulated activity measured for Dbl-transformed cells that were not treated with 968. Data is the average of 3 experiments (±s.d.). […] The addition of Pi stimulated the GA activity of HMECs, MDA-MB231 cells, and SKBR3 cells by ˜5-fold, 2-fold, and 1.4-fold, respectively. 100% represents the Pi-stimulated activity for SKBR3 cells that were not treated with 968. Data are the average of 3 experiments (±s.d.). […] Mitochondrial fractions were prepared from equal numbers of cells and assayed for GA activity in the presence or absence of 133 mM Pi. The data are plotted as the percentage of GA activity measured for untreated SKBR3 cells and represent the average of 2 experiments. […] 100% represents the Pi-stimulated activity measured for untreated Dbl-transformed cells. The data represent the average of 2 experiments. […] 100% represents the Pi-stimulated activity for untreated SKBR3 cells. The data represent the average of 2 experiments.
Dbl expressing NIH 3T3 cells were treated for 48 hours in the presence or absence of 968 (10 μM), Bay 11-7082 (2 μM) or Rapamycin (100 nM). Mitochondria were then isolated from the treated cells and assayed for glutaminase activity in the absence or presence of phosphate.
Mitochondrial preparations were obtained using the mitochondria isolation kit from QIAGEN (Cat #37612). A suspension containing 2×10^7 cells was transferred into a 50 ml conical tube and centrifuged at 500×g for 10 minutes at 4° C. The pellets were resuspended in 2 ml of ice-cold lysis buffer (supplied by QIAGEN) and incubated for 10 minutes at 4° C. using an end-over-end shaker. The lysates were centrifuged at 1000×g for 10 minutes at 4° C., and the pellets were resuspended in a buffer supplied by the manufacturer and disrupted completely by using a blunt-ended, 23-gauge needle and a syringe, followed by centrifugation at 6000×g for 20 minutes at 4° C. […]

CN(C)c1ccc(C2Nc3ccc4ccccc4c3C3=C2C(=O)CC(C)(C)C3)cc1Br (stereo not drawn) [Compound 968, 5-[3-bromo-4-(dimethylamino)phenyl]-2,2-dimethyl-2,3,5,6-tetrahydrobenzo[a]]
basal GA activity [1]: sensitive to 968
GA activity of transformed cells [2]: inhibits their GA activity
sensitivity of basal versus phosphate-stimulated GA activity ([2]; with or without 133 mM Pi): basal activity being more sensitive than the phosphate-stimulated activity
